{
  "source": "patent US9746466B2",
  "about": "“Integrated compound discovery systems and methods” (Wake Forest University, priority 2011, dated 2017)",
  "target": "thrombin (Homo sapiens, UniProt P00734)",
  "assay": "on-chip binding of TAMRA-labeled thrombin to bead-displayed oligonucleotides on Ion Torrent sequencing chips, fluorescence imaging",
  "conditions": "after washing, fluorescence imaging of wells, 20mer GT randomer library doped with thrombin aptamer",
  "description": "Embodiments of the present invention reduce uncertainty due to amplification-based biases, blind spots and inference-based methods of deconvoluting candidate sequences through direct, on-chip analysis of candidate sequences and their target-binding properties. […] We obtained DNA libraries containing a 20mer GT randomer region flanked by Ion Torrent adaptor sequences (ITD, Coralville, Iowa). Libraries were doped with increasing amounts of the thrombin aptamer (with adaptors). […] The number of full-length reads correlates with the amount of thrombin aptamer doped into GT randomer libraries.",
  "data": [
    {"sequence": "GGTTGGTGTGGTTGG (DNA, backbone not given here) [thrombin aptamer]", "values": [
      {"measurement": "intensity of the TAMRA signal", "value": "highest"},
      {"measurement": "residence time of the TAMRA signal", "value": "highest"}
    ]}
  ]
}
